Tests used:
[1] = test system: AHL mediated quorum sensing; type: cell-based
AI-2 pathway = assay: microbe, parasite or virus in culture; type: cell-based, V. harveyi; settings: Vibrio harveyi, read-out: AI-2 (% of control)
Staphylococcus aureus = assay: Growth of Staphylococcus aureus; type: cell-based
Description: The growth of Staphylococcus aureus against furanones was tested in sidearm flasks. One percent of an overnight culture was added to the growth media, Nutrient Broth, containing furanones at the concentrations 1-50 μg/ml. The bacteria were incubated at 37 C and growth was measured at 610 nm.

[2] = type: cell-based, V. vulnificus
V. vulnificus = assay: Attachment by V. vulnificus; type: cell-based

Question: With `CCCCCCCC1=CC(=O)N(c2ccccc2)C1(O)CBr` (centres unmarked) as the compound, how does the AHL [1] read?
Answer: + + +

Question: For `CC1=CC(C)(Nc2ccccc2)OC1=O` (centres unmarked), which AHL [1] is on record?
Answer: + +

Question: And the activity at 100 µg/mL (AI-2 pathway)?
Answer: 50%

Question: What about the “S. aureus (% of control)” value (Staphylococcus aureus; growth, 50 ug/ml) of the same compound?
Answer: No effect 50 μg/ml

Question: For `CCCCC1=CC(=C(Br)Br)N(c2ccccc2)C1=O`, which AHL [1] is on record?
Answer: + + +

Question: Which results are given for `CCCC(Br)C1=CC(=C(Br)Br)N(c2ccccc2)C1=O` (centres unmarked) [drawing 24]?
Answer: AHL [1]: + + + +; S. aureus (% of control) (Staphylococcus aureus; growth for 10 hrs, concentration not given): 0% growth at ug/ml for 10 hrs % of control

Question: For `C/C=C1\NC(=O)C=C1C`, which AHL [1] is on record?
Answer: + + +

Question: And the “S. aureus (% of control)” value (Staphylococcus aureus; growth, 50 ug/ml)?
Answer: No effect 50 μg/ml

Question: For `O=C1C=C(Br)/C(=C/Nc2ccccc2)O1` [drawing 35], which “reduction in swimming motility” value [2] is on record?
Answer: 40-50% reduction in swimming motility in V. cholerae and V. vulnificus

Question: And the reduction in attachment (V. vulnificus)?
Answer: 30% reduction in attachment by V. vulnificus

Question: Which results are given for `CCCC(Br)C1=CC(=C(Br)Br)N(c2ccccc2)C1=O` (centres unmarked) [drawing 37]?
Answer: reduction in swimming motility [2]: 40-50% reduction in swimming motility in V. cholerae and V. vulnificus; reduction in attachment (V. vulnificus): 30% reduction in attachment by V. vulnificus

Question: For `C[C@@]1(Nc2ccccc2)OC(=O)C=C1N`, which AHL [1] is on record?
Answer: + + +

Question: What about the activity at 5 µg/mL (AI-2 pathway) of the same compound?
Answer: 80%

Question: And the activity at 10 µg/mL (AI-2 pathway)?
Answer: 57%

Question: What about the activity at 50 µg/mL (AI-2 pathway) of the same compound?
Answer: 26%

Question: With `CCCCC1=CC(=C(Br)Br)N(CCOS(=O)(=O)c2ccc(C)cc2)C1=O` as the compound, how does the AHL [1] read?
Answer: + +

Question: And the “S. aureus (% of control)” value (Staphylococcus aureus; growth, 50 ug/ml)?
Answer: No effect (50 μg/ml)

Question: Which results are given for `O=C1C=C(Br)/C(=C/Nc2ccccc2)O1` [drawing 26]?
Answer: AHL [1]: + + +; activity at 50 µg/mL (AI-2 pathway): 2%; activity at 50 µg/mL (Staphylococcus aureus; Staphylococcus aureus, growth, 50 ug/ml, read-out: S. aureus (% of control)): 104%

Question: For `CCCCC1=CC(=C(Br)Br)N(CCOC(=O)C(F)(F)F)C1=O`, which AHL [1] is on record?
Answer: + + +

Question: And the “S. aureus (% of control)” value (Staphylococcus aureus; growth, 50 ug/ml)?
Answer: No effect (50 μg/ml)

Question: What does the source list for `CC1(O)NC(=O)C=C1c1ccccc1` (centres unmarked)?
Answer: activity at 100 µg/mL (AI-2 pathway): 39%; activity at 25 µg/mL (Staphylococcus aureus; Staphylococcus aureus, growth, 25 μg/ml, read-out: S. aureus (% of control)): 102%

Question: What does the source list for `CCCCC1=C(Br)/C(=C/Nc2ccccc2)OC1=O`?
Answer: AHL [1]: + + + +; activity at 20 µg/mL (AI-2 pathway): 61%; S. aureus (% of control) (Staphylococcus aureus; growth, 50 ug/ml): No effect 50 μg/ml
